US10233191B2, “Fused piperidine amides as modulators of ion channels” (Vertex Pharmaceuticals Incorporated, priority 2013, dated 2019)

Biological target: T1, NaV 1.7 (Homo sapiens, UniProt Q15858)
T1 construct: expressed in transfected cells; host or cells: HEK cells
Assay: E-VIPR optical membrane potential assay with electrical stimulation
Assay type: cell-based
Details: active against one or more sodium channels; assay/subtype not specified in Table 4; read-out: IC50 Binned Activity Data
Description: E-VIPR Optical Membrane Potential Assay Method with Electrical Stimulation
Sodium channels are voltage-dependent proteins that can be activated by inducing membrane voltage changes by applying electric fields. The electrical stimulation instrument and methods of use are described in Ion Channel Assay Methods PCT/US01/21652, herein incorporated by reference and are referred to as E-VIPR. The instrument comprises a microtiter plate handler, an optical system for exciting the coumarin dye while simultaneously recording the coumarin and oxonol emissions, a waveform generator, a current- or voltage-controlled amplifier, and a device for inserting electrodes in well. Under integrated computer control, this instrument passes user-programmed electrical stimulus protocols to cells within the wells of the microtiter plate.
24 hours before the assay on E-VIPR, HEK cells expressing human NaV subtype, like NaV 1.7, are seeded in 384-well poly-lysine coated plates at 15,000-20,000 cells per well. Other subtypes are performed in an analogous mode in a cell line expressing the NaV of interest. HEK cells are grown in media (exact composition is specific to each cell type and NaV subtype) supplemented with 10% FBS (Fetal Bovine Serum, qualified; GibcoBRL #16140-071) and 1% Pen-Strep (Penicillin-Streptomycin; GibcoBRL #15140-122). Cells are grown in vented cap flasks, in 90% humidity and 10% CO2, to 100% confluence. They are usually split by trypsinization 1:10 or 1:20, depending on scheduling needs, and grown for 2-3 days before the next split.
• 100 mg/mL Pluronic F-127 (Sigma #P2443), in dry DMSO • Compound Plates: 384-well round bottom plate, e.g. Corning 384-well Polypropylene Round Bottom #3656 • Cell Plates: 384-well tissue culture treated plate, e.g. Greiner #781091-1B • 10 mM DiSBAC6(3) (Aurora #00-100-010) in dry DMSO • 10 mM CC2-DMPE (Aurora #00-100-008) in dry DMSO • 200 mM ABSC1 in H2O
Bath1 buffer. Glucose 10 mM (1.8 g/L), Magnesium Chloride (Anhydrous), 1 mM (0.095 g/L), Calcium Chloride, 2 mM (0.222 g/L), HEPES 10 mM (2.38 g/L), Potassium Chloride, 4.5 mM (0.335 g/L), Sodium Chloride 160 mM (9.35 g/L).
Hexyl Dye Solution: Bath1 Buffer+0.5% β-cyclodextrin (make this prior to use, Sigma #C4767), 8 μM CC2-DMPE+2.5 μM DiSBAC6(3). To make the solution Add volume of 10% Pluronic F127 stock equal to volumes of CC2-DMPE+DiSBAC6(3). The order of preparation is first mix Pluronic and CC2-DMPE, then add DiSBAC6(3) while vortexing, then add Bath1+β-Cyclodextrin.
1) Pre-spot compounds (in neat DMSO) into compound plates. Vehicle control (neat DMSO), the positive control (20 mM DMSO stock tetracaine, 125 μM final in assay) and test compounds are added to each well at 160× desired final concentration in neat DMSO. Final compound plate volume will be 80 μL (80-fold intermediate dilution from 1 μL DMSO spot; 160-fold final dilution after transfer to cell plate). Final DMSO concentration for all wells in assay is 0.625%.
2) Prepare Hexyl Dye Solution.
3) Prepare cell plates. On the day of the assay, medium is aspirated and cells are washed three times with 100 μL of Bath1 Solution, maintaining 25 μL residual volume in each well.
4) Dispense 25 μL per well of Hexyl Dye Solution into cell plates. Incubate for 20-35 minutes at room temp or ambient conditions.
5) Dispense 80 μL per well of Bath1 into compound plates. Acid Yellow-17 (1 mM) is added and Potassium Chloride can be altered from 4.5 to 20 mM depending on the NaV subtype and assay sensitivity.
6) Wash cell plates three times with 100 μL per well of Bath1, leaving 25 μL of residual volume. Then transfer 25 uL per well from Compound Plates to Cell Plates. Incubate for 20-35 minutes at room temp/ambient condition
7) Read Plate on E-VIPR. Use the current-controlled amplifier to deliver stimulation wave pulses for typically 9 seconds and a scan rate of 400 Hz. A pre-stimulus recording is performed for 0.5 seconds to obtain the un-stimulated intensities baseline. […]

T1 sequence (Q15858 whole entry): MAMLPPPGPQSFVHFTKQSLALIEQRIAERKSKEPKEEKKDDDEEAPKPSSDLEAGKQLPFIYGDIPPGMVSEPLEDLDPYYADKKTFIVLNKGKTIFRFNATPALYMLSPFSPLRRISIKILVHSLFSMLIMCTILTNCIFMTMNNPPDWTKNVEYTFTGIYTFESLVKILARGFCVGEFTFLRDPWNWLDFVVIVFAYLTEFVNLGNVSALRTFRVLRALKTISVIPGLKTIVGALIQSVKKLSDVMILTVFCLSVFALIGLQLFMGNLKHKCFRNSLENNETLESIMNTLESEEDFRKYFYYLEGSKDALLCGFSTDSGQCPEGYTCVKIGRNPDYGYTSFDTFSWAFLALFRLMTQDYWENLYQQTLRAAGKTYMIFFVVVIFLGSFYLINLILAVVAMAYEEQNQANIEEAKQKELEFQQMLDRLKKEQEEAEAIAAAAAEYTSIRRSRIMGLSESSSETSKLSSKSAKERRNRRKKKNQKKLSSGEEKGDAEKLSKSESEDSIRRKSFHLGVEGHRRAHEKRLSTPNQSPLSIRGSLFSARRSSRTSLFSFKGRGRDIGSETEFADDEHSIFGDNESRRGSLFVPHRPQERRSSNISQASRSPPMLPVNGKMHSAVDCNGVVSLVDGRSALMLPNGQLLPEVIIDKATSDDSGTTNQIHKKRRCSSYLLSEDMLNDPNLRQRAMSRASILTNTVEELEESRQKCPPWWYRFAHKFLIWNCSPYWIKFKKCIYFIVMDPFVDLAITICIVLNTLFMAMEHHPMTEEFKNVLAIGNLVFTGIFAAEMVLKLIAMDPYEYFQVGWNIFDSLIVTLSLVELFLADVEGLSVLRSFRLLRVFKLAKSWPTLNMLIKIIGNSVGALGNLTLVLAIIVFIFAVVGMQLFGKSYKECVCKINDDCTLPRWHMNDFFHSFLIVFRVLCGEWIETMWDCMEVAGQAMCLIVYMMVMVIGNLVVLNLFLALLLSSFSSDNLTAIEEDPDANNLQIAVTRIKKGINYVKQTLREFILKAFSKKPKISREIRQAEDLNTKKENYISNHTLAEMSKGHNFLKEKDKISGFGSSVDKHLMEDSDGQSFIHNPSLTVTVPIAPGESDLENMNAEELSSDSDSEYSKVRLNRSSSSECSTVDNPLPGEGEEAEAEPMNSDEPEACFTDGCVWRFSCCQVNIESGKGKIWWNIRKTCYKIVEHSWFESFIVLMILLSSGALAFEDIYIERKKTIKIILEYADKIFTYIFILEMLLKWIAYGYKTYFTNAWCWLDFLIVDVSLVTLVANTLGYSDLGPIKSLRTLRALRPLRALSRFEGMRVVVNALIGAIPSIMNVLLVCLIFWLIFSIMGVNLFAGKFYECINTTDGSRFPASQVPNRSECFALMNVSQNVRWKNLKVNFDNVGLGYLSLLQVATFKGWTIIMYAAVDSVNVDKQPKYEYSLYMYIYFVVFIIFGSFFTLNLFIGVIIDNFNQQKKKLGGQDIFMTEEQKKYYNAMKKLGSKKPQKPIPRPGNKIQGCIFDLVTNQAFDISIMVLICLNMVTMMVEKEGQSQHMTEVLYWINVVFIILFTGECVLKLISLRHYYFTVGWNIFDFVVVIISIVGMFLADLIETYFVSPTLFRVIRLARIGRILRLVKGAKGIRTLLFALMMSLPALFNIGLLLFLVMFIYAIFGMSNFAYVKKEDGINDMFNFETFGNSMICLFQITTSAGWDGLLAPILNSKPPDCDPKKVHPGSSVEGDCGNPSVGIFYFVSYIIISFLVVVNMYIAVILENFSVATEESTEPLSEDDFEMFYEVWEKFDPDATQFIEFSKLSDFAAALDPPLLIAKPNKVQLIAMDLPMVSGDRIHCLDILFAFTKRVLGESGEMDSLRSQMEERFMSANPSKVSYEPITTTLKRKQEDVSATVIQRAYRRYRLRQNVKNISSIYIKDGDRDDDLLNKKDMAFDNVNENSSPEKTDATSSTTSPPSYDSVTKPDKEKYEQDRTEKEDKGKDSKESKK

Row | IC50 [µM] | SMILES
1 | ≤ 2 | Cc1cc(C(=O)N2CC[C@@]3(c4ccc(F)cc4)OCOC3C2)ccc1OCC(C)(C)O (stereo partly drawn) [Compound 58]
2 | ≤ 2 | O=C(c1ccc(OCCOC(F)(F)F)c(F)c1)N1CC[C@@]2(c3nccs3)OCOC2C1 (stereo partly drawn) [Compound 59]
3 | ≤ 2 | COc1nc(C(=O)N2CCC3(c4ccccc4)CC3C2)ccc1OCC(C)(C)O (stereo not drawn) [Compound 60]
4 | ≤ 2 | COc1cc(C(=O)N2CC[C@]3(c4ccccn4)OCOC3C2)ccc1OC(C)CC(F)(F)F (stereo partly drawn) [Compound 61]
5 | 2 to 5 | O=C(c1ccc(OCCOC(F)(F)F)c(F)c1)N1CC[C@]2(c3nccs3)OCOC2C1 (stereo partly drawn) [Compound 62]
6 | ≤ 2 | Cc1cc(C(=O)N2CC[C@@]3(c4nccs4)OCOC3C2)ccc1OCC(F)(F)F (stereo partly drawn) [Compound 63]
7 | ≤ 2 | COc1cc(C(=O)N2CC[C@@]3(c4ccccn4)COC[C@H]3C2)ccc1OCCOC(F)(F)F [Compound 64]
8 | ≤ 2 | COc1cc(C(=O)N2CCC3(c4ccccc4)CC3C2)ccc1OCC1CCCO1 (stereo not drawn) [Compound 65]
9 | ≤ 2 | COc1cc(C(=O)N2CCC3(c4ccccn4)OCCC3C2)ccc1OCCOC(F)(F)F (stereo not drawn) [Compound 66]
10 | ≤ 2 | Cc1nc(C(=O)N2CC[C@]3(c4ncccc4Cl)OCOC3C2)ccc1OC(C)C (stereo partly drawn) [Compound 67]
11 | ≤ 2 | COc1cc(C(=O)N2CCC3(c4ccccn4)OCOC3C2)ccc1OCCOC(F)(F)F (stereo not drawn) [Compound 68]
12 | ≤ 2 | CC(C)(C)OCCOc1ccc(C(=O)N2CC[C@]3(c4ccccn4)OCOC3C2)cc1Cl (stereo partly drawn) [Compound 69]
13 | ≤ 2 | Cc1cc(C(=O)N2CC[C@]3(c4nccs4)OCOC3C2)ccc1OCC(F)(F)F (stereo partly drawn) [Compound 70]
14 | ≤ 2 | COc1cc(C(=O)N2CC[C@]3(c4ccccc4)OCOC3C2)ccc1OCC(C)(C)F (stereo partly drawn) [Compound 71]
15 | ≤ 2 | COc1cc(C(=O)N2CC[C@]3(c4ccccn4)OCO[C@@H]3C2)ccc1OC(C)C(F)(F)F (stereo partly drawn) [Compound 72]
16 | ≤ 2 | Cc1cc(C(=O)N2CC[C@@]3(c4ccccc4)OCOC3C2)ccc1OCC(C)(C)O (stereo partly drawn) [Compound 73]
17 | ≤ 2 | Cc1nc([C@]23CCN(C(=O)c4ccc(OCC(C)(C)F)c(C)c4)CC2OCO3)cs1 (stereo partly drawn) [Compound 74]
18 | ≤ 2 | Cc1cc(C(=O)N2CC[C@]3(c4ccccc4)OCOC3C2)ccc1OCC(C)(C)O (stereo partly drawn) [Compound 75]
19 | ≤ 2 | O=C(c1cccc2cccnc12)N1CC[C@]2(c3ccccc3)OCOC2C1 (stereo partly drawn) [Compound 76]
20 | ≤ 2 | Cc1cc(C(=O)N2CC[C@]3(c4ccccc4)OCOC3C2)ccc1OC(C)C (stereo partly drawn) [Compound 77]
21 | ≤ 2 | COc1cc(C(=O)N2CC[C@@]3(c4csc(C)n4)OCOC3C2)ccc1OCCOC(F)(F)F (stereo partly drawn) [Compound 78]
22 | ≤ 2 | Cc1cc(C(=O)N2CCC3(c4ccccc4)CC3C2)ccc1OC(C)C (stereo not drawn) [Compound 79]
23 | ≤ 2 | Cc1cc(C(=O)N2CC[C@]3(c4cccc(OCC(C)C)n4)OCOC3C2)ccc1OCCOC(F)(F)F (stereo partly drawn) [Compound 80]
24 | 2 to 5 | Cc1cc(C(=O)N2CC[C@@]3(c4ccccc4)OCOC3C2)ccc1OC(C)C (stereo partly drawn) [Compound 81]
25 | ≤ 2 | Cc1cc(C(=O)N2CC[C@@]3(c4nccs4)OCOC3C2)ccc1OCC(C)(C)F (stereo partly drawn) [Compound 82]
26 | ≤ 2 | COc1cc(C(=O)N2CCC3(c4ccccc4)CC3C2)ccc1COCC(F)(F)F (stereo not drawn) [Compound 83]
27 | ≤ 2 | O=C(c1ccc(OCC2CC2(F)F)c(C(F)(F)F)c1)N1CC[C@]2(c3ccccn3)OCOC2C1 (stereo partly drawn) [Compound 84]

Row | IC50 [µM] | SMILES
28 | ≤ 2 | COc1cc(C(=O)N2CC[C@]3(c4nccs4)OCOC3C2)ccc1OCCOC(F)(F)F (stereo partly drawn) [Compound 85]
29 | ≤ 2 | COc1cc(C(=O)N2CC[C@@]3(c4nccs4)OCOC3C2)ccc1OCCOC(F)(F)F (stereo partly drawn) [Compound 86]
30 | ≤ 2 | CC(C)(C)OCCOc1ccc(C(=O)N2CC[C@]3(c4ncccc4OCCOC(C)(C)C)OCOC3C2)cc1Cl (stereo partly drawn) [Compound 87]
31 | ≤ 2 | COc1nc(C(=O)N2CC[C@]3(c4csc(C)n4)OCOC3C2)ccc1OCCOC(F)(F)F (stereo partly drawn) [Compound 88]
32 | ≤ 2 | COc1cccnc1[C@]12CCN(C(=O)c3ccc(OCCOC(F)(F)F)c(C)c3)CC1OCO2 (stereo partly drawn) [Compound 89]
33 | ≤ 2 | COc1cc(C(=O)N2CC[C@]3(c4ccccn4)OCOC3C2)ccc1OCC1CC(F)(F)C1 (stereo partly drawn) [Compound 90]
34 | ≤ 2 | COc1cc(C(=O)N2CC[C@]3(c4ccccc4)OCOC3C2)ccc1C(C)(C)CO (stereo partly drawn) [Compound 91]
35 | ≤ 2 | COc1cc(C(=O)N2CC[C@]3(c4ccccn4)OCOC3C2)ccc1OCCOC(F)(F)F (stereo partly drawn) [Compound 92]
36 | ≤ 2 | COc1cc(C(=O)N2CC[C@]3(c4ncccc4F)OCOC3C2)ccc1OCCOC(F)(F)F (stereo partly drawn) [Compound 93]
37 | ≤ 2 | COc1cccnc1[C@]12CCN(C(=O)c3ccc(OCCOC(F)(F)F)c(Cl)c3)CC1OCO2 (stereo partly drawn) [Compound 94]
38 | ≤ 2 | Cc1cc(C(=O)N2CC[C@]3(c4ccccn4)OCOC3C2)ccc1OCC(C)(C)F (stereo partly drawn) [Compound 95]
39 | ≤ 2 | COc1nc(C(=O)N2CC[C@]3(c4ncccc4F)OCOC3C2)ccc1OCCOC(F)(F)F (stereo partly drawn) [Compound 96]
40 | ≤ 2 | Cc1cc(C(=O)N2CC[C@]3(c4nccs4)OCOC3C2)ccc1OCC(C)(C)F (stereo partly drawn) [Compound 97]
41 | ≤ 2 | COc1cc(OC(C)C)ccc1C(=O)N1CCC2(c3ccccc3)CC2C1 (stereo not drawn) [Compound 98]
42 | ≤ 2 | COc1cc(C(=O)N2CC[C@]3(c4ccc(F)cc4)OCOC3C2)ccc1OCCOC(F)(F)F (stereo partly drawn) [Compound 99]
43 | ≤ 2 | Cc1cc(C(=O)N2CC[C@]3(c4ncccc4F)OCOC3C2)ccc1OCC(C)(C)F (stereo partly drawn) [Compound 100]
44 | ≤ 2 | COc1cc(C(=O)N2CC[C@]3(c4ccccn4)CC3C2)ccc1OCCOC(F)(F)F (stereo partly drawn) [Compound 101]
45 | ≤ 2 | COc1cc(C(=O)N2CC[C@]3(c4ccccc4)OCOC3C2)ccc1OCCC(F)(F)F (stereo partly drawn) [Compound 102]
46 | ≤ 2 | CCOc1nc(C(=O)N2CC[C@]3(c4csc(C)n4)OCOC3C2)ccc1OCCOC(F)(F)F (stereo partly drawn) [Compound 103]
47 | ≤ 2 | COc1cc(C(=O)N2CC[C@]3(c4ccccc4)CC3C2)ccc1OCC(C)(C)O (stereo partly drawn) [Compound 104]
48 | ≤ 2 | COc1cc(C(=O)N2CC[C@]3(c4ccccn4)OCOC3C2)cc(Cl)c1OCCOC(F)(F)F (stereo partly drawn) [Compound 105]
49 | ≤ 2 | CC(F)(F)COc1ccc(C(=O)N2CC[C@]3(c4ccccn4)OCOC3C2)cc1Cl (stereo partly drawn) [Compound 106]
50 | ≤ 2 | COc1nc(C(=O)N2CC[C@]3(c4ccccn4)OCOC3C2)ccc1OCCOC(F)(F)F (stereo partly drawn) [Compound 107]
51 | ≤ 2 | O=C(c1ccc(OCCOCC(F)(F)F)c(Cl)c1)N1CC[C@]2(c3ccccn3)OCOC2C1 (stereo partly drawn) [Compound 108]
52 | ≤ 2 | Cc1cc(C(=O)N2CC[C@@]3(c4ccc(F)cc4)OCOC3C2)ccc1OCC(C)(C)F (stereo partly drawn) [Compound 109]
53 | ≤ 2 | CC(C)(F)COc1ccc(C(=O)N2CC[C@]3(c4ccccn4)OCOC3C2)cc1Cl (stereo partly drawn) [Compound 110]
54 | ≤ 2 | COc1nc(C(=O)N2CC[C@]3(c4nccs4)OCOC3C2)ccc1OCCOC(F)(F)F (stereo partly drawn) [Compound 111]
